These results are taken from US5389644A, “1,4-dihydropyridine compounds” (priority 1992, dated 1995).

Molecules are shown by their SMILES.

Assay [1] relates to KB-A1. Nature of the assay: Cytotoxicity: reversal of resistance to adriamycin (reversion factor), line KB-A1. The assay is classed as cell-based, Human. How it is done:
The parameter measured is the cytotoxicity of the antitumour drug, quantified in the absence and in the presence of the reversing compound. […] The compounds tested for their capacity to reverse the resistance are added at the same time as the cytotoxic agent. The cells are then incubated for 4 days.

For a further assay, the system named is DC-3F/AD. Kind of assay: Cytotoxicity: reversal of resistance to actinomycin D (reversion factor), line DC-3F/AD. The assay is classed as cell-based, Chinese hamster. As to the method: The parameter measured is the cytotoxicity of the antitumour drug, quantified in the absence and in the presence of the reversing compound. Two resistant cell lines were used: 1 Chinese hamster lung line, DC-3F/AD, the resistance of which was induced by actinomycin D. […] The compounds tested for their capacity to reverse the resistance are added at the same time as the cytotoxic agent. The cells are then incubated for 4 days.

Assay [2] relates to KB-A1. Kind of assay: Flow cytometry: intracellular accumulation of ADR, line KB-A1. The assay is classed as cell-based, Human. The following applies: ADR 50 μM, 5 hours. How it is done:
Also measured was the effect of the compounds on the intracellular concentration of adriamycin. […] By measuring that fluorescence, it is thus possible to obtain a relative measurement of the intracellular concentration of ADR. […] The cells (5×10^5 per ml) were exposed simultaneously to ADR at a fixed concentration (50 μM) and to the tested compounds at various concentrations. After 5 hours' incubation, the intracellular accumulation of ADR was evaluated by FCM. […] The results were presented in the form of linear histograms of the intracellular ADR fluorescence. Expression of the results: for each of the histograms the mean fluorescence per channel (MEAN) was determined by the computer of the apparatus. For all experiments: a negative control (cells without ADR) fixed the autofluorescence threshold. a positive control (cells with ADR) determined the MEAN value=MN1. the "test" tubes (cells with ADR and with compound) were used to determine, for each of the compounds and at each of the concentrations, the MEAN values=MN2. The results are expressed in the form of variations from the mean fluorescence obtained for each of the "test" tubes (MN2) in relation to the mean fluorescence obtained with the positive control (MN1): VAR-MEAN=MN2-MN1. The measured parameter is thus the increase in ADR fluorescence in the presence of the tested compounds.
For orientation: Flow cytometry measures light scatter and fluorescence of single cells or particles in a stream.

The next assay relates to P 388/VCR. Nature of the assay: In vivo increase in antitumour activity of vincristine, resistant line P 388/VCR. Also on record: species or system murine leukaemia in female B6D2F1 mice. The source says: This study was completed by an in vivo study, using a murine leukaemia resistant to vincristine (P 388/VCR) and using the compounds of the present invention in association with vincristine.
(§1) The sensitive parent line P 388 (murine leukaemia) and the sub-line resistant to vincristine, P 388/VCR, were supplied by NCI (Frederick, USA). The tumour cells (10^6 cells) were inoculated on day 0 into the indraperitoneal cavity of female B6D2F1 mice (Iffa Credo, France) weighing from 18 to 20 g (groups of 8 to 10 animals).
Every day for 4 days, starting from day 1, the animals received:
an administration of 25 to 150 mg/kg by i.p., p.o. or i.v. route of the compound of the present invention to be tested, as mentioned in the table 4a; then
(§2) 30 to 60 minutes later, an administration by the i.p. route of 0.25 mg/kg of vincristine (used as a reference antitumour agent).
(§3) The antitumour activity is expressed as follows: [formula]
(§4) The values are mean values obtained in independent experiments (# sem when n is greater than or equal to 3).

Another assay has as its system P 388. Kind of assay: In vivo increase in antitumour activity of vincristine, sensitive line P388. Also noted: species or system murine leukaemia in female B6D2F1 mice. As to the method:
as §1
Every day for 4 days, starting from day 1, the animals received: […]
as §2, §3, §4
Using the sensitive line (P388) the tested compounds of the invention increase considerably the sensitivity of the cells to vincristine.

The mark [3] stands for this setting: with VCR […] i.p., compound 50 mg/kg i.p.
The mark [4] stands for this setting: with VCR […] i.p., compound 150 mg/kg p.o.
[5] abbreviates: VCR 0, compound 12.5 mg/kg p.o.
Where [6] appears, read: with VCR […] i.p., compound 12.5 mg/kg p.o.

As to `CCOC(=O)C1=C(COCCOCCNCc2cccc([N+](=O)[O-])c2)NC(C)=C(C(=O)OC)C1c1cccc(Cl)c1Cl` (stereo not drawn) [Example 2, d-2-{[2-(2-(N-m-nitrobenzylamino)ethoxy)ethoxy]methyl}-4-(2,3-dichlorophenyl)-3-ethoxycarbonyl-5-methoxycarbonyl-6-methyl-1,4-dihydropyridine], the “reversion factor (RF)” value with KB-A1 [1] (compound 1 μM) is reported as 2.2; with KB-A1 [1] (compound 5 μM) it was 389.5; in the assay with DC-3F/AD (compound 1 μM) it was 1.5; in the assay on DC-3F/AD (compound 5 μM), 1,478.2.

The term T/C denotes the ratio of treated to control. On to `CCOC(=O)C1=C(COCCOCCNCc2ccc(F)cc2)NC(C)=C(C(=O)OC)C1c1cccc(Cl)c1Cl` (stereo not drawn) [Example 4, d-2-{[2-(2-(N-p-fluorobenzylamino)ethoxy)ethoxy]methyl}-4-(2,3-dichlorophenyl)-3-ethoxycarbonyl-5-methoxycarbonyl-6-methyl-1,4-dihydropyridine], for which the “increase in the ADR fluorescence (VAR-MEAN)” value (“increase” for short) with KB-A1 [2] (compound 1 μM) amounted to 2.0; in the assay on KB-A1 [2] (compound 5 μM), 18.6; in the assay on KB-A1 [2] (compound […]), 7.0. Besides, the “reversion factor (RF)” value in the assay with KB-A1 [1] (compound 1 μM) is reported as 26.0; in the assay with KB-A1 [1] (compound 5 μM), 473.7; in the assay with DC-3F/AD (compound 1 μM), 23.0; with DC-3F/AD (compound 5 μM) it was 3,962.3. The T/C with P 388/VCR (VCR 0, compound 50 mg/kg i.p.) is 100%; in the assay on P 388/VCR (VCR 0, compound 150 mg/kg p.o.), 110%; with P 388/VCR (setting [3]), 176%; with P 388/VCR (setting [4]), 181%.

Take `CCOC(=O)C1=C(COCCOCCNCc2cccc(F)c2)NC(C)=C(C(=O)OC)C1c1cccc(Cl)c1Cl` (stereo not drawn) [Example 5, d-2-{[2-(2-(N-m-fluorobenzylamino)ethoxy)ethoxy]methyl}-4-(2,3-dichlorophenyl)-3-ethoxycarbonyl-5-methoxycarbonyl-6-methyl-1,4-dihydropyridine]: the “reversion factor (RF)” value is recorded as 13.2 in the assay with KB-A1 [1] (compound 1 μM), 225.8 in the assay on KB-A1 [1] (compound 5 μM), 7.6 with DC-3F/AD (compound 1 μM) and 3,567.0 with DC-3F/AD (compound 5 μM).

For the compound `CCOC(=O)C1=C(COCCOCCNCc2ccccc2F)NC(C)=C(C(=O)OC)C1c1cccc(Cl)c1Cl` (stereo not drawn) [Example 6, d-2-{[2-(2-(N-o-fluorobenzylamino)ethoxy)ethoxy]methyl}-4-(2,3-dichlorophenyl)-3-ethoxycarbonyl-5-methoxycarbonyl-6-methyl-1,4-dihydropyridine], the “reversion factor (RF)” value was 15.2 in the assay with KB-A1 [1] (compound 1 μM), 159.1 in the assay on KB-A1 [1] (compound 5 μM), 9.6 in the assay with DC-3F/AD (compound 1 μM) and 4,340.9 with DC-3F/AD (compound 5 μM).

Consider `CCOC(=O)C1=C(COCCOCCNCc2ccc(C#N)cc2)NC(C)=C(C(=O)OC)C1c1cccc(Cl)c1Cl` (stereo not drawn) [Example 8, d-2-{[2-(2-(N-p-cyanobenzylamino)ethoxy)ethoxy]methyl}-4(2,3-dichlorophenyl)-3-ethoxycarbonyl-5-methoxycarbonyl-6-methyl-1,4-dihydropyridine], for which the results for the “increase” value with KB-A1 [2] (compound 1 μM), in the assay with KB-A1 [2] (compound 5 μM) and in the assay with KB-A1 [2] (compound […]) were 2.0, 24.2 and 9.4, respectively. The “reversion factor (RF)” value with KB-A1 [1] (compound 1 μM) is recorded as 6.9; with KB-A1 [1] (compound 5 μM) it was 136.0; in the assay on DC-3F/AD (compound 1 μM), 11.4; in the assay with DC-3F/AD (compound 5 μM) it was 1,319.9. The “Survivors on day 60” value in the assay on P 388 (VCR 0, compound 150 mg/kg p.o.) was 0/8; in the assay with P 388 (setting [4]), 2/8. Moreover, the T/C in the assay with P 388 (VCR 0, compound 150 mg/kg p.o.) is recorded as 106%; in the assay with P 388 (setting [4]), 294%.

On to `CCOC(=O)C1=C(COCCOCCNCc2ccc(SC)cc2)NC(C)=C(C(=O)OC)C1c1cccc(Cl)c1Cl` (stereo not drawn) [Example 9, d-2-{[2-(2-(N-p-methylthiobenzylamino)ethoxy)ethoxy]methyl}-4-(2,3-dichlorophenyl)-3-ethoxycarbonyl-5-methoxycarbonyl-6-methyl-1,4-dihydropyridine], for which the “reversion factor (RF)” value was found to be 2.4 in the assay with KB-A1 [1] (compound 1 μM), 99.0 in the assay with KB-A1 [1] (compound 5 μM), 1.2 in the assay with DC-3F/AD (compound 1 μM) and 560.3 with DC-3F/AD (compound 5 μM).

`CCOC(=O)C1=C(COCCOCCNCc2cccc3ccccc23)NC(C)=C(C(=O)OC)C1c1cccc(Cl)c1Cl` (stereo not drawn) [Example 11, d-2-{[2-(2-(N-naphth-1-ylmethylamino)ethoxy)ethoxy]methyl}-4-(2,3-dichlorophenyl)-3-ethoxycarbonyl-5-methoxycarbonyl-6-methyl-1,4-dihydropyridine]: the results for the “increase” value in the assay on KB-A1 [2] (compound 1 μM), in the assay on KB-A1 [2] (compound 5 μM) and with KB-A1 [2] (compound […]) were 0.2, 31.0 and 18.2, respectively. The “reversion factor (RF)” value in the assay on KB-A1 [1] (compound 1 μM) is given as 1.7; with KB-A1 [1] (compound 5 μM), 336.0; with DC-3F/AD (compound 1 μM), 1.0; in the assay with DC-3F/AD (compound 5 μM), 2,442.4. Moreover, the T/C with P 388/VCR (VCR 0, compound 50 mg/kg i.p.) amounted to 100%; with P 388/VCR (VCR 0, compound 150 mg/kg p.o.), 99%; in the assay on P 388/VCR (setting [3]), 146%; with P 388/VCR (setting [4]) it was 177%.

Take `CCOC(=O)C1=C(COCCOCCNCc2cccs2)NC(C)=C(C(=O)OC)C1c1cccc(Cl)c1Cl` (stereo not drawn) [Example 13, d-2-{[2-(2-(N-thien-2-ylmethylamino)ethoxy)ethoxy]methyl)-4-(2,3-dichlorophenyl)-3-ethoxycarbonyl-5-methoxycarbonyl-6-methyl-1,4-dihydropyridine]: the “reversion factor (RF)” value was 12.3 in the assay on KB-A1 [1] (compound 1 μM), 165.1 in the assay with KB-A1 [1] (compound 5 μM), 19.4 in the assay with DC-3F/AD (compound 1 μM) and 4,141.7 in the assay with DC-3F/AD (compound 5 μM).

With `CCOC(=O)C1=C(COCCOCCNCc2ccncc2)NC(C)=C(C(=O)OC)C1c1cccc(Cl)c1Cl` (stereo not drawn) [Example 15, d-2-{[2-(2-(N-pyrid-4-ylmethylamino)ethoxy)ethoxy]methyl}-4-(2,3-dichlorophenyl)-3-ethoxycarbonyl-5-methoxycarbonyl-6-methyl-1,4-dihydropyridine], the “increase” value in the assay on KB-A1 [2] (compound 1 μM) is 7.0; in the assay with KB-A1 [2] (compound 5 μM), 38.6; in the assay on KB-A1 [2] (compound […]) it was 16.1. In addition, the “reversion factor (RF)” value is 12.1 in the assay with KB-A1 [1] (compound 1 μM), 281.9 in the assay on KB-A1 [1] (compound 5 μM), 301.4 with DC-3F/AD (compound 1 μM) and 6,510.3 with DC-3F/AD (compound 5 μM). Further, the T/C was found to be 109% in the assay on P 388/VCR (VCR 0, compound 25 mg/kg i.p.); 94% with P 388/VCR (VCR 0, compound 25 mg/kg i.v.); 112% with P 388/VCR (VCR 0, compound 25 mg/kg p.o.); 262% with P 388/VCR (with VCR […] i.p., compound 25 mg/kg i.p.); 186% with P 388/VCR (with VCR […] i.p., compound 25 mg/kg i.v.); 180% with P 388/VCR (with VCR […] i.p., compound 25 mg/kg p.o.). The T/C in the assay on P 388 (setting [5]) stood at 101%; in the assay on P 388 (setting [6]), 540%. The “Survivors on day 60” value with P 388 (setting [5]) is listed as 0/8; in the assay with P 388 (setting [6]), 3/8.

Regarding `CCOC(=O)C1=C(COCCOCCNC2c3ccccc3CCc3ccccc32)NC(C)=C(C(=O)OC)C1c1cccc(Cl)c1Cl` (stereo not drawn) [Example 28, d-2-{[2-(2-[N-dibenzo[a,d]cyclohept-5-ylamino)ethoxy)ethoxy]methyl}-4-(2,3-dichlorophenyl)-3-ethoxycarbonyl-5-methoxycarbonyl-6-methyl-1,4-dihydropyridine], the T/C stood at 107% in the assay on P 388/VCR (VCR 0, compound 50 mg/kg i.p.); 99% in the assay on P 388/VCR (VCR 0, compound 150 mg/kg p.o.); 180% in the assay on P 388/VCR (setting [3]); 207% with P 388/VCR (setting [4]). In addition, the results for the “reversion factor (RF)” value in the assay on DC-3F/AD (compound 1 μM) and in the assay on DC-3F/AD (compound 5 μM) were 1.4 and 447.3, respectively.

On to `COC(=O)C1=C(C)NC(C)=C(C(=O)OC)C1c1ccccc1[N+](=O)[O-]` [NIFEDIPINE, nifedipine, reference compound], for which the “increase” value in the assay with KB-A1 [2] (compound 1 μM), in the assay with KB-A1 [2] (compound 5 μM) and in the assay with KB-A1 [2] (compound […]) was 0.0 each time.
